# What was measured:
# [1] = test system: cytotoxic T cells (CD8+ T cells); test: Flow cytometry of immune cells from tissue where SEK-1005-containing agarose rod was embedded under the skin: cytotoxic T cells; type: in vivo, ACI rats
# Description: (§1) In a polystyrene tube with an inner diameter of 4 mm, 4.5% agarose solution was poured, and the tube was then left to stand at normal temperature to allow gelation of the agarose solution. The resulting agarose gel rod was removed from the polystyrene tube, and cut into a piece having a length of 25 mm. Subsequently, the agarose gel rod was stored in a freezer at −30° C. overnight to allow freezing of water. By freeze-drying the frozen agarose rod, a porous dry agarose rod was prepared. To the dry agarose rod, 50 μl of a solution of 2 mg/ml SEK-1005 in ethanol was added dropwise to include the SEK-1005 solution in the dry agarose rod. Ethanol was then evaporated by air drying.
# On the day when the agarose rod was to be embedded, streptozotocin (STZ) (60 mg/kg body weight) was administered to ACI rats to induce diabetes. To each of the left side and the right side of the back of each ACI rat, the agarose rod having a length of 25 mm and a diameter of 4 mm containing 100 μg of SEK-1005 was embedded. […] In the vicinity of each place where the agarose rod had been embedded, formation of connective tissue containing a number of blood vessels was found. This tissue was minced with scissors, and then homogenized, followed by collecting cells from the tissue. The cells were subjected to purification by Percoll density gradient centrifugation to obtain immune cells, and the obtained immune cells were analyzed using a flow cytometer.
# In normal subcutaneous tissues, the ratio is about 30%, and, when a foreign substance is embedded, the ratio increases to not less than 50% in most cases. The action of SEK-1005 suppressed such an increase.
# CD8+ T cells = test: Treg suppression assay with CD4+CD25+ cells collected from tissue near the SEK-1005-containing agarose rod; type: cell-based, ACI rats; settings: Group 2: CFSE-stained CD8+ T cells, 1 μg/mL anti-CD3 antibody plus 2.5×10^4 CD4+CD25+ cells from Day 10 rod tissue, Day 4.5; Group 1 without these cells 42.4%
# Source text: On Day 10 after embedding of the SEK-1005-containing agarose rod by the same operation as in Example 1, the tissue in the vicinity of the place where the rod was embedded was collected, and then homogenized, followed by collecting cells from the tissue. The cells were subjected to purification by Percoll density gradient centrifugation to obtain immune cells, and CD4^+CD25^+ cells (a fraction containing a large number of tissue-infiltrating regulatory T cells) were collected using MACS magnetic beads.
# CD8^+ T cells were separately prepared from ACI rats, and the cells were then stained with a fluorescent dye, carboxyfluorescein succinimidyl ester (CFSE). On a 96-well plate, 2.5×10^4 CD8^+ T cells and 5×10^4 antigen-presenting cells were plated in each well, and the cell growth was quantitatively evaluated using a flow cytometer on Day 4.5 after the plating. The wells were divided into three groups. In Group 1, 1 μg/mL anti-CD3 antibody was added to stimulate the growth. In Group 2, 1 μg/mL anti-CD3 antibody as well as 2.5×10^4 CD4^+CD25^+ cells were added. In Group 3, no anti-CD3 antibody was added.
# One round of cell division of T cells stained with a fluorescent dye results in a decrease in the fluorescence intensity to half. Another division results in a decrease in the fluorescent intensity to one fourth of the original intensity. […]
# [2] = Blood glucose level after transplantation of pancreatic islets into the site where the SEK-1005-containing agarose rod was embedded; type: in vivo; settings: then removed, 1,500 F344 rat islets per cavity, STZ-diabetic ACI rats
# Description: On the day when the SEK-1005-containing agarose rod was to be embedded, streptozotocin (STZ) (60 mg/kg body weight) was administered to ACI rats to induce diabetes. Under the skin of each of the left side and the right side of the back of each ACI rat, the agarose rod prepared in the same way as Example 1 was embedded. On Day 2 or Day 10 after the embedding, the agarose rod was removed, and 1,500 pieces of pancreatic islets separated from the pancreases of F344 rats were transplanted to each of the two dorsal subcutaneous cavities formed. After the transplantation, the blood glucose levels of the rats were measured. […] When SEK-1005-free agarose rod was embedded in the STZ-administered rats for 10 days and after removal of the agarose-rod, pancreatic islets were transplanted to the embedded site, the blood glucose levels of the diabetic rats were not decreased.
# [3] = test system: regulatory T cells (CD4+Foxp3+ cells); test: Flow cytometry of immune cells from tissue where SEK-1005-containing agarose rod was embedded under the skin: regulatory T cells; type: in vivo, ACI rats; settings: for ratio of Foxp3+ cells among CD4+ cells: STZ-diabetic ACI rats
# Description: as §1
# (§2) On the day when the agarose rod was to be embedded, streptozotocin (STZ) (60 mg/kg body weight) was administered to ACI rats to induce diabetes. To each of the left side and the right side of the back of each ACI rat, the agarose rod having a length of 25 mm and a diameter of 4 mm containing 100 μg of SEK-1005 was embedded. On Day 10 after the embedding, the agarose rod was removed. In the vicinity of each place where the agarose rod had been embedded, formation of connective tissue containing a number of blood vessels was found. This tissue was minced with scissors, and then homogenized, followed by collecting cells from the tissue. The cells were subjected to purification by Percoll density gradient centrifugation to obtain immune cells, and the obtained immune cells were analyzed using a flow cytometer.
# The ratio of Foxp3^+ cells among CD4^+ cells was 18.3% on Day 2, 20.8% on Day 7, 23.3% on Day 10, and 27.3% on Day 14 after the SEK-1005-containing agarose rod was embedded under the skin.
# [4] = test system: chemokine/cytokine-associated genes; test: Gene expression analysis of tissue in vicinity of embedded SEK-1005-containing agarose rod; type: in vivo, rat; settings: Day 7 after embedding, versus SEK-1005-free agarose rod group
# Source text: On Day 7 after embedding of the SEK-1005-containing agarose rod by the same operation as in Example 1, the tissue in the vicinity of the place where the rod was embedded was collected. The collected tissue was immediately impregnated with RNA later solution (Life Technologies) to inhibit RNA degradation. RNA in the tissue was extracted by the column method. The extracted RNA was amplified by the Express kit method (Affymetrix) and biotin-labeled, followed by hybridization with a Rat Genome 230 2.0 array (Affymetrix). Signals were read by a Hewlett-Packard GeneArray Scanner G2500A. By such a process, gene expression analysis was carried out for three tissue samples obtained from the vicinities of SEK-1005-containing agarose rods and three tissue samples obtained from the vicinities of control SEK-1005-free agarose rods. The obtained fluorescence intensities were standardized and normalized, and then subjected to statistical analysis. The standardized and normalized gene expression level was statistically compared between the SEK-1005-containing agarose rod group and the control SEK-1005-free agarose rod group. Genes showing increased expression in the SEK-1005-containing agarose rod group were plotted such that their values along the X-axis became positive. Log 2 conversion was carried out in terms of the X-axis. […]
# TGF-β1 = TGF-β1 concentration in the exudate at the site of the SEK-1005-containing agarose rod; type: in vivo, ACI rats
# Description: as §1, §2
# The TGF-β1 concentration in the exudate was measured. The TGF-β1 concentration was 0.7±0.1 ng/ml until Day 7 after the SEK-1005-containing agarose rod was embedded. […] This was about 3 times the concentration in a treated group in which an SEK-1005-free agarose rod was embedded.
structure (smiles),measurement,setting,value
"CC(C)CC1CCC(O)(C(C)(O)C(=O)NC2C(=O)N3NCCCC3C(=O)N(O)C(C)C(=O)N(C)C(Cc3ccccc3)C(=O)N3NCCCC3C(=O)NC(CO)C(=O)OC2C(C)C)OC1C (stereo not drawn) [SEK-1005, Ser, 3-hydroxy-N-[2-hydroxy-1-oxo-2-tetrahydro-2-hydroxy-6-methyl-5-(2-methylpropyl)-2H-pyran-2-yl-propyl]-Leu-Pip(hexahydro-3-pyridazinecarbonyl)-N-hydroxy-Ala-N-methyl-Phe-Pip-rho-lactone]",ratio of cytotoxic T cells (CD8+ T cells) to CD4+ cells among CD3+ cells,[1]; Day 2 after SEK-1005-containing agarose rod embedded under the skin,36.1%
same,ratio of cytotoxic T cells (CD8+ T cells) to CD4+ cells among CD3+ cells,[1]; Day 7 after SEK-1005-containing agarose rod embedded under the skin,33.7%
same,ratio of cytotoxic T cells (CD8+ T cells) to CD4+ cells among CD3+ cells,[1]; Day 10 after SEK-1005-containing agarose rod embedded under the skin,25.5%
same,ratio of cytotoxic T cells (CD8+ T cells) to CD4+ cells among CD3+ cells,[1]; Day 14 after SEK-1005-containing agarose rod embedded under the skin,23.9%
same,ratio of cells exhibiting decreased fluorescence intensity due to cell division,CD8+ T cells,13.4%
same,blood glucose levels after transplantation of pancreatic islets,[2]; rod embedded for ten days,normalized
same,blood glucose levels after transplantation of pancreatic islets,[2]; rod embedded for two days,> 400 mg/dL
same,ratio of Foxp3+ cells among CD4+ cells,[3]; Day 2 after rod with 100 μg SEK-1005 embedded under the skin,18.3%
same,ratio of Foxp3+ cells among CD4+ cells,[3]; Day 7 after rod with 100 μg SEK-1005 embedded under the skin,20.8%
same,ratio of Foxp3+ cells among CD4+ cells,[3]; Day 10 after rod with 100 μg SEK-1005 embedded under the skin,23.3%
same,ratio of Foxp3+ cells among CD4+ cells,[3]; Day 14 after rod with 100 μg SEK-1005 embedded under the skin,27.3%
same,increase of ratio of regulatory T cells (CD4+Foxp3+ cells),[3]; versus about 10% in normal subcutaneous tissues,2- to 3 fold
same,expression of genes associated with migration/induction of regulatory T cells among chemokine/cytokine-associated genes,[4],significant increase
same,expression of genes not associated with migration/induction of regulatory T cells among chemokine/cytokine-associated genes,[4],significant decrease
same,TGF-β1 concentration in the exudate,TGF-β1; Day 10 after the embedding,2.0 ± 1.0 ng/mL
same,TGF-β1 concentration relative to SEK-1005-free agarose rod group,TGF-β1; Day 10 after the embedding,about 3 times
same,TGF-β1 concentration in the exudate,TGF-β1; until Day 7 after the rod was embedded,0.7 ± 0.1 ng/mL

# Reference: patent US10238714B2, “Method for forming an immune-tolerant site and method for attracting immunosuppressive cells” (KYOTO UNIVERSITY, priority 2015, dated 2019)
